What all share (format): cell-based
Test [1] deals with T1, human muscarinic M2 receptor (Homo sapiens, UniProt P08172).
T1 sequence (P08172 1-466): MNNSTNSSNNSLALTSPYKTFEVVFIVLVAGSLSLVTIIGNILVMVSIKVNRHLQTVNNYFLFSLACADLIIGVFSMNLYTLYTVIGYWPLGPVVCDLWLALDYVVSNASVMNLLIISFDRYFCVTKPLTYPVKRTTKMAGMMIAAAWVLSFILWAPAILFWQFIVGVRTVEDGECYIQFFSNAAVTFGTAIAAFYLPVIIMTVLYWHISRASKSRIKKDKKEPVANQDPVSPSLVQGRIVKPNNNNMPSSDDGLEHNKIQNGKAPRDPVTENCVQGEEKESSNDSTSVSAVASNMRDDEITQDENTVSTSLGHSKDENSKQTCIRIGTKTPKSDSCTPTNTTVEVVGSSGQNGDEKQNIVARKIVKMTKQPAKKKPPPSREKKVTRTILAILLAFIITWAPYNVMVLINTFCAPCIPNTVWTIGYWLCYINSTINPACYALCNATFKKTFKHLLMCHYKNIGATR
Put plainly: Alphascreen Surefire phospho-ERK1/2 functional assay, M2. The settings on record: for % Emax cf. ACh, M2 / Emax: Emax relative to ACh; for EC50: phospho-ERK1/2; for Emax: CHO, read-out: % Emax cf. ACh, M2, CHO cells stably expressing human M2. Here is the method: (§1) ERK1/2 phosphorylation is a downstream consequence of both Gq/11 and Gi/o protein coupled receptor activation, making it highly suitable for the assessment of M1, M3 (Gq/11 coupled) and M2, M4 receptors (Gi/o coupled), rather than using different assay formats for different receptor subtypes. CHO cells stably expressing the human muscarinic M1, M2, M3 or M4 receptor were plated (25K/well) onto 96-well tissue culture plates in MEM-alpha+10% dialysed FBS. Once adhered, cells were serum-starved overnight. Agonist stimulation was performed by the addition of 5 μL agonist to the cells for 5 min (37° C.). Media was removed and 50 μL of lysis buffer added. After 15 min, a 4 μL sample was transferred to 384-well plate and 7 μL of detection mixture added.
(§2) Isomer assignment (Isomer 1, Isomer 2, etc.) is based on the retention time of the compound using the separation technique that was performed in the final purification step. By implication, this could be reversed phase HPLC, chiral HPLC or chiral SFC retention time, and this will vary from compound to compound.

Test [2] deals with T2, human muscarinic M1 receptor (Homo sapiens, UniProt P11229).
T2 sequence (P11229 1-460): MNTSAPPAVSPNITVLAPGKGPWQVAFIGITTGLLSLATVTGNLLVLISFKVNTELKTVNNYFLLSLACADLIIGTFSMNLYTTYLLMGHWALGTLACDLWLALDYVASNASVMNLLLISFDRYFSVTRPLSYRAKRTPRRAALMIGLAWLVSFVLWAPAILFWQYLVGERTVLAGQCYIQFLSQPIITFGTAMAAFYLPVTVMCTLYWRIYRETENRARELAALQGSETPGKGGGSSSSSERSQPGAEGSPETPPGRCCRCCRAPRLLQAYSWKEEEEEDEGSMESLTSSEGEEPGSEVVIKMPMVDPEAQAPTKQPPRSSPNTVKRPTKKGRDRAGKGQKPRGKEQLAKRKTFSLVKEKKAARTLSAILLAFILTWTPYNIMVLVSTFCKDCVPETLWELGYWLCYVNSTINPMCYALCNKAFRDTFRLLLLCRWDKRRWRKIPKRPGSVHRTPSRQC
Put plainly: Alphascreen Surefire phospho-ERK1/2 functional assay, M1. The following applies: for EC50: phospho-ERK1/2. In a few lines: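 Stably transfected CHO cells, serum-starved overnight, then exposed to agonist for 5 min at 37 °C. Cells lysed and phospho-ERK1/2 measured by AlphaScreen SureFire.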

Test [3] concerns the target T3, human muscarinic M4 receptor (Homo sapiens, UniProt P08173).
T3 sequence (P08173 1-479): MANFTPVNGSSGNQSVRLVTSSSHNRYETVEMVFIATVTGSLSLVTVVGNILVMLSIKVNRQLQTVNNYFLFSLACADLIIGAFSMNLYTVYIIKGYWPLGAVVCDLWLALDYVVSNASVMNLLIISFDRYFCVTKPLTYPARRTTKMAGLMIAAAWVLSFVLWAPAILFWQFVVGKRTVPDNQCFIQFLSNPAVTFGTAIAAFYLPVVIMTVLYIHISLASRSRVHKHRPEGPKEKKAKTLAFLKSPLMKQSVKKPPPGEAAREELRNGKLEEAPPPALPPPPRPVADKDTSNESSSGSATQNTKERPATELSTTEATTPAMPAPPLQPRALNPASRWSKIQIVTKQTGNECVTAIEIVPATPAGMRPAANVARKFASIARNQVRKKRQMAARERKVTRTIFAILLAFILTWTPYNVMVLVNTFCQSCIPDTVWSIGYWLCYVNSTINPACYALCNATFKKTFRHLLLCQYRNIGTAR
The test can be described thus: Alphascreen Surefire phospho-ERK1/2 functional assay, M4. The following applies: for % Emax cf. ACh, M4: Emax relative to ACh; for EC50: phospho-ERK1/2. The method, boiled down: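 CHO cells stably expressing human M1, M2, M3 or M4 receptor, serum-starved overnight, then stimulated with agonist for 5 min at 37 °C. Cells lysed for 15 min and phospho-ERK1/2 detected in the lysate by AlphaScreen SureFire.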

Test [4] deals with T4, human muscarinic M3 receptor (Homo sapiens, UniProt P20309).
T4 construct: expressed in transfected cells
The test can be described thus: Alphascreen Surefire phospho-ERK1/2 functional assay, M3. The following applies: for % Emax cf. ACh, M3 / Emax: Emax relative to ACh; for EC50: phospho-ERK1/2; for Emax: CHO, read-out: % Emax cf. ACh, M3, CHO cells stably expressing human M3. The procedure:
as §1, §2

Setting [5] is: pEC50 M2, CHO cells stably expressing human M2.
The mark [6] stands for this setting: pEC50 M1, CHO cells stably expressing human M1.
The mark [7] stands for this setting: pEC50 M4, CHO cells stably expressing human M4.
[8] abbreviates: pEC50 M3, CHO cells stably expressing human M3.
Setting [9] is: CHO cells stably expressing human M1, Emax relative to ACh.
[10] abbreviates: CHO cells stably expressing human M4.

Like-named read-outs stand apart in the source and are kept apart here. A value given as a limit tells only on which side of the number the result lay.

Here are results for eight molecules from patent US10787447B2, “Pharmaceutical compounds” (Heptares Therapeutics Limited, priority 2018, dated 2020).

T4 sequence (P20309 whole entry): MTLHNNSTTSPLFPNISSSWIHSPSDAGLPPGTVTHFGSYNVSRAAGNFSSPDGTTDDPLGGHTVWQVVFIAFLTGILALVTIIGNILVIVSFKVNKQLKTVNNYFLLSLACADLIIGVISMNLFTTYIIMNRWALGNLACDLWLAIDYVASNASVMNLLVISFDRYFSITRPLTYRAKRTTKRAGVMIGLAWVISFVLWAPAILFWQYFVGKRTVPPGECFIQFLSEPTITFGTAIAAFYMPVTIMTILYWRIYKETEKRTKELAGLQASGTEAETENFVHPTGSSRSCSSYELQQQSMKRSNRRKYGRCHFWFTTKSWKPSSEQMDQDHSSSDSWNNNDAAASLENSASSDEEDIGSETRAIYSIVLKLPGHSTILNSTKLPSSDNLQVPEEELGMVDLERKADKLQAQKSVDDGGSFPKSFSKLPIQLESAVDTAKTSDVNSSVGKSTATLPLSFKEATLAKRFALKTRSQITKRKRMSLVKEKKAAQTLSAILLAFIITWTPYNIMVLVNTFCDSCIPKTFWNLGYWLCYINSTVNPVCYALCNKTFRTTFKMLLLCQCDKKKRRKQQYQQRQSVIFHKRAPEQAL

With `CCOC(=O)N1C2COCC1CC(N1CCC(N3CC(F)(F)C[C@@H]3CO)CC1)C2` (single isomer, unassigned) [Example 4-1 Isomer 1], the “% Emax cf. ACh, M2” value in test [1] (CHO cells stably expressing human M2, listed as 4-1 Isomer 1) stood at 87%. Besides, the EC50 in test [1] (setting [5]) was 251 nM; in test [2] (setting [6]), 155 nM; in test [3] (setting [7]), 30.9 nM; in test [4] (setting [8]), > 20000 nM. Moreover, in test [2] (CHO cells stably expressing human M1, Emax relative to ACh, listed as 4-1 Isomer 1), the “% Emax cf. ACh, M1” value worked out at 108%. Moreover, the “% Emax cf. ACh, M4” value in test [3] (CHO cells stably expressing human M4, listed as 4-1 Isomer 1) turned out to be 114%. The “% Emax cf. ACh, M3” value in test [4] (CHO cells stably expressing human M3, listed as 4-1 Isomer 1) came to 11%.

Take `CCOC(=O)N1C2COCC1CC(N1CCC(N3CC(F)(F)C[C@@H]3CO)CC1)C2` (single isomer, unassigned) [Example 4-1 Isomer 2]: in test [1] (CHO cells stably expressing human M2, listed as 4-1 Isomer 2), the “% Emax cf. ACh, M2” value amounted to 17%. The EC50 is > 20000 nM in test [1] (setting [5]), 398 nM in test [2] (setting [6]) and 100 nM in test [3] (setting [7]). Further, the “% Emax cf. ACh, M1” value in test [2] (CHO cells stably expressing human M1, Emax relative to ACh, listed as 4-1 Isomer 2) was 47%. In addition, the “% Emax cf. ACh, M4” value in test [3] (CHO cells stably expressing human M4, listed as 4-1 Isomer 2) is reported as 59%. For the same molecule, the “% Emax cf. ACh, M3” value in test [4] (CHO cells stably expressing human M3, listed as 4-1 Isomer 2) is listed as 4%.

Turning to `CCOC(=O)N1C2COCC1CC(N1CCC3(CC1)CC3)C2` (single isomer, unassigned) [Example 5-1 Isomer 1, Ethyl 7-(6-azaspiro[2.5]oct-6-yl)-3-oxa-9-azabicyclo[3.3.1]nonane-9-carboxylate], the Emax in test [1] is 8%; in test [2] (CHO, read-out: % Emax cf. ACh, M1, CHO cells stably expressing human M1, Emax relative to ACh) it was 47%. For the same molecule, the EC50 in test [1] (setting [5]) was > 20000 nM; in test [2] (setting [6]), 72.4 nM; in test [3] (setting [7]), > 20000 nM; in test [4] (setting [8]), > 20000 nM. Besides, in test [3] (CHO cells stably expressing human M4, listed as 5-1 Isomer 1), the “% Emax cf. ACh, M4” value was found to be 13%. For the same molecule, the “% Emax cf. ACh, M3” value in test [4] (CHO cells stably expressing human M3, listed as 5-1 Isomer 1) stood at 0%.

Regarding `CCOC(=O)N1C2COCC1CC(N1CCC3(CC1)CC3)C2` (single isomer, unassigned) [Example 5-1 Isomer 2, Ethyl 7-(6-azaspiro[2.5]oct-6-yl)-3-oxa-9-azabicyclo[3.3.1]nonane-9-carboxylate], in test [1] (CHO cells stably expressing human M2), the “% Emax cf. ACh, M2” value is 13%. In addition, in test [2] (setting [9]), the “% Emax cf. ACh, M1” value is 66%. Further, the values for the EC50 in test [2] (setting [6]) and in test [3] (setting [7]) were 141 nM and 33.9 nM, respectively. In test [3] (CHO cells stably expressing human M4, listed as 5-1 Isomer 2), the “% Emax cf. ACh, M4” value was 41%. Further, the “% Emax cf. ACh, M3” value in test [4] (CHO cells stably expressing human M3, listed as 5-1 Isomer 2) turned out to be 8%.

In the case of `CCOC(=O)N1C2COCC1CC(N1CCC3(CC1)CNC(=O)C3)C2` (single isomer, unassigned) [Example 5-2 Isomer 2, Ethyl 7-(3-oxo-2,8-diazaspiro[4.5]dec-8-yl)-3-oxa-9-azabicyclo[3.3.1]nonane-9-carboxylate], the results for the Emax in test [1] and in test [4] were 8% and 5%, respectively. Besides, the EC50 is > 20000 nM in test [1] (setting [5]), 43.7 nM in test [2] (setting [6]), > 20000 nM in test [3] (setting [7]) and > 20000 nM in test [4] (setting [8]). The “% Emax cf. ACh, M1” value in test [2] (CHO cells stably expressing human M1, Emax relative to ACh, listed as 5-2 Isomer 2) turned out to be 61%. In addition, in test [3] (setting [10]), the “% Emax cf. ACh, M4” value was determined as 18%.

Consider `CCOC(=O)N1C2COCC1CC(N1CCC3(CC1)CNC(=O)O3)C2` (single isomer, unassigned) [Example 5-3 Isomer 2, Ethyl 7-(2-oxo-1-oxa-3,8-diazaspiro[4.5]dec-8-yl)-3-oxa-9-azabicyclo[3.3.1]nonane-9-carboxylate], for which the EC50 in test [1] (CHO cells stably expressing human M2, read-out: pEC50 M2 (converted)) is > 20000 nM; in test [2] (CHO cells stably expressing human M1, read-out: pEC50 M1 (converted)), 126 nM; in test [3] (CHO cells stably expressing human M4, read-out: pEC50 M4 (converted)) it was > 20000 nM; in test [4] (CHO cells stably expressing human M3, read-out: pEC50 M3 (converted)), > 20000 nM. In addition, the Emax was found to be 4% in test [1] and 5% in test [4]. In addition, the “% Emax cf. ACh, M1” value in test [2] (setting [9]) was 73%. Moreover, the “% Emax cf. ACh, M4” value in test [3] (setting [10]) is recorded as 17%.

For `CCOC(=O)N1C2COCC1CC(N1CCC3(CC1)OC(=O)NC3CC)C2` (single isomer, unassigned) [Example 5-4 Isomer 1a, Ethyl 7-(4-ethyl-2-oxo-1-oxa-3,8-diazaspiro[4.5]dec-8-yl)-3-oxa-9-azabicyclo[3.3.1]nonane-9-carboxylate], the “% Emax cf. ACh, M2” value in test [1] (CHO cells stably expressing human M2, listed as 5-4 Isomer 1a) turned out to be 3%. Besides, the EC50 in test [1] (setting [5]) was > 20000 nM; in test [2] (setting [6]), 1480 nM; in test [3] (setting [7]), 145 nM; in test [4] (setting [8]), > 20000 nM. In test [2] (CHO cells stably expressing human M1, Emax relative to ACh, listed as 5-4 Isomer 1a), the “% Emax cf. ACh, M1” value worked out at 76%. Besides, in test [3] (CHO cells stably expressing human M4, listed as 5-4 Isomer 1a), the “% Emax cf. ACh, M4” value was determined as 81%. Further, in test [4], the maximal response (Emax) amounted to 2%.

Consider `CCOC(=O)N1C2COCC1CC(N1CCC3(CC1)OC(=O)NC3CC)C2` (single isomer, unassigned) [Example 5-4 Isomer 2b, Ethyl 7-(4-ethyl-2-oxo-1-oxa-3,8-diazaspiro[4.5]dec-8-yl)-3-oxa-9-azabicyclo[3.3.1]nonane-9-carboxylate], for which the “% Emax cf. ACh, M2” value in test [1] (CHO cells stably expressing human M2, listed as 5-4 Isomer 2b) was determined as 1%. Further, the “% Emax cf. ACh, M1” value in test [2] (CHO cells stably expressing human M1, Emax relative to ACh, listed as 5-4 Isomer 2b) was 25%. Moreover, the EC50 in test [2] (setting [6]) is 74.1 nM; in test [3] (setting [7]) it was > 20000 nM. The “% Emax cf. ACh, M4” value in test [3] (CHO cells stably expressing human M4, listed as 5-4 Isomer 2b) is listed as 20%. Also, the “% Emax cf. ACh, M3” value in test [4] (CHO cells stably expressing human M3) is 4%.
